# Results as given in ChEMBL document CHEMBL1743201, “Casarett and Doull's Toxicology The Basic Science of Poisons, 7th edition” (2008).
# Tests used:
# [1] = target: T1, Glutathione S-transferase A1 (Homo sapiens, UniProt P08263); experiment: Substrates for human cytosolic glutathione transferase GSTA1; format: ADME
# T1 sequence (P08263 whole entry): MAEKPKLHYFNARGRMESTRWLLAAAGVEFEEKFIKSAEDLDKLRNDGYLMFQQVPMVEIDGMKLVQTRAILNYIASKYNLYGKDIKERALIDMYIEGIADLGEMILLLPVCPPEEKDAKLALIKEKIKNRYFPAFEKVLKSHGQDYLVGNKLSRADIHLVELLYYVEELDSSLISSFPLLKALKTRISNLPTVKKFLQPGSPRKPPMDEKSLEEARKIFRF
# [2] = target: Glutathione S-transferase A3 (Homo sapiens, UniProt Q16772); experiment: Substrates for human cytosolic glutathione transferase GSTA3; format: ADME
# Glutathione S-transferase A3, sequence (Q16772 whole entry): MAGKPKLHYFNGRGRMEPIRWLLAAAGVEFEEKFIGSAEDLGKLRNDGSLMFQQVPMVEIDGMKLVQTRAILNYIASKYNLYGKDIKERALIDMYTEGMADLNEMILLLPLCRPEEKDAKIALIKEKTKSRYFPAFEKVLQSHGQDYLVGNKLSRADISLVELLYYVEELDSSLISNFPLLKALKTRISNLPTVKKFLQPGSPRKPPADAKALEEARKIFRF
# [3] = target: Microsomal glutathione S-transferase 2 (Homo sapiens, UniProt Q99735); experiment: Substrates for human microsomal glutathione transferase MGST2; format: ADME
# Microsomal glutathione S-transferase 2, sequence (Q99735 whole entry): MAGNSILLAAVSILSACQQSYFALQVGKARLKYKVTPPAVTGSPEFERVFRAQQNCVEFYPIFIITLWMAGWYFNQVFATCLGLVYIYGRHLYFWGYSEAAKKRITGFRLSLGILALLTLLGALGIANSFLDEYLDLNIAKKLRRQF
# [4] = target: T2, Glutathione S-transferase A2 (Homo sapiens, UniProt P09210); experiment: Substrates for human cytosolic glutathione transferase GSTA2; format: ADME
# T2 sequence (P09210 whole entry): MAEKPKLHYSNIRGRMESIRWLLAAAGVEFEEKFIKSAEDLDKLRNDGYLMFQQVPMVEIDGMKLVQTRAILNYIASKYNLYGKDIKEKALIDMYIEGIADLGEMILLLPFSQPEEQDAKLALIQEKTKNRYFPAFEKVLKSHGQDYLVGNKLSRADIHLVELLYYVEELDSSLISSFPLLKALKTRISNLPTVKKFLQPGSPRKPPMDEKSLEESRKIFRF
# [5] = target: Cytochrome P450 2E1 (Homo sapiens, UniProt P05181); experiment: Clinically relevant substrates of human liver microsomal P450 enzymes, isoform CYP2E1; format: ADME; conditions: microsomes
# Cytochrome P450 2E1, sequence (P05181 whole entry, canonical isoform): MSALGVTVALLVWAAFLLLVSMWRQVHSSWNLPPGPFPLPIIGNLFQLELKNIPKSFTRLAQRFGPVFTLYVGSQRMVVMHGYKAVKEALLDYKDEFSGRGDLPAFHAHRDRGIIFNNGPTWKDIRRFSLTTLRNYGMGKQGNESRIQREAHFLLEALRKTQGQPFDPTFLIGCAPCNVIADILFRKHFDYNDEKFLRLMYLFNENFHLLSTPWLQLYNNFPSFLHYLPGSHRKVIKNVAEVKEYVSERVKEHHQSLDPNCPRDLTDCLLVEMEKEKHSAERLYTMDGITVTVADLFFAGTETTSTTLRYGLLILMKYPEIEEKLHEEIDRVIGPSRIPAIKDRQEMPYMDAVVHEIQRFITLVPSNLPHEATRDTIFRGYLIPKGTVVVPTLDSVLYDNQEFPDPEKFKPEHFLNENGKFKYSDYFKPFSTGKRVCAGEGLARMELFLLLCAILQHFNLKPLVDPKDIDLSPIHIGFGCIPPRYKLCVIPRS
# [6] = target: T3, Sulfotransferase 4A1 (Homo sapiens, UniProt Q9BR01); experiment: Major substrate of human cytosolic sulfotransferase SULT4A1_v1; format: ADME
# T3 sequence (Q9BR01 whole entry): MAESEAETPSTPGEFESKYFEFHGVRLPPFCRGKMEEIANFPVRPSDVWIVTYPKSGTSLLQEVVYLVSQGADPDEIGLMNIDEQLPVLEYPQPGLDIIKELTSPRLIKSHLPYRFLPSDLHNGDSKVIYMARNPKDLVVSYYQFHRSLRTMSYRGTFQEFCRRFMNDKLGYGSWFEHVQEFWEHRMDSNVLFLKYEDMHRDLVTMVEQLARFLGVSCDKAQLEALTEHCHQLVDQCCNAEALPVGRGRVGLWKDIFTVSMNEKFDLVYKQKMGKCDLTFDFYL
# [7] = target: Sulfotransferase 1A1 (Homo sapiens, UniProt P50225); experiment: Major substrate of human cytosolic sulfotransferase SULT1A1; format: ADME
# Sulfotransferase 1A1, sequence (P50225 whole entry): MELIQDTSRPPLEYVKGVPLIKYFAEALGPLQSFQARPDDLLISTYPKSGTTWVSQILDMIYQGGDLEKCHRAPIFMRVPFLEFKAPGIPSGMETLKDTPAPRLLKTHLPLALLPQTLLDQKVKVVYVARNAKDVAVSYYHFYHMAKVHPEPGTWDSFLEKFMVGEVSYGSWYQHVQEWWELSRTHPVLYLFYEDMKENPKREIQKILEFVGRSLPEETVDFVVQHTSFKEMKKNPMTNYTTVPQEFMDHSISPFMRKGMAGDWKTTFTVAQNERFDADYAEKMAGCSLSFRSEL
# [8] = target: Sulfotransferase 1A2 (Homo sapiens, UniProt P50226); experiment: Major substrate of human cytosolic sulfotransferase SULT1A2; format: ADME
# Sulfotransferase 1A2, sequence (P50226 whole entry): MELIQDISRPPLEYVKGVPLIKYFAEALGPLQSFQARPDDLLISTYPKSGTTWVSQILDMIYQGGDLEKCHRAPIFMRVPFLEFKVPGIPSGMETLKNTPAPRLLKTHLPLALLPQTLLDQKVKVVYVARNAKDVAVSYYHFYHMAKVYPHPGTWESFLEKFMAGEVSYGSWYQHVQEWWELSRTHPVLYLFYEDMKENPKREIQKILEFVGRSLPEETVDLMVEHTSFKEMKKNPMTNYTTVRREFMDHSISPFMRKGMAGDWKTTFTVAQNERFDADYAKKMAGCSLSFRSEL
# [9] = target: Glutathione S-transferase Mu 3 (Homo sapiens, UniProt P21266); experiment: Substrates for human cytosolic glutathione transferase GSTM3; format: ADME
# Glutathione S-transferase Mu 3, sequence (P21266 whole entry): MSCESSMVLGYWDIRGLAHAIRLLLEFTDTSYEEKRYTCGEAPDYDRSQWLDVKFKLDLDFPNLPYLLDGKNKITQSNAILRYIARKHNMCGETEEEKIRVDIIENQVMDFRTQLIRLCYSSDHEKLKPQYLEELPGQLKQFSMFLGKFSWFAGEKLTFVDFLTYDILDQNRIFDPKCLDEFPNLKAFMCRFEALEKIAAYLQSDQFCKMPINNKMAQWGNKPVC
# [10] = target: T4, Glutathione S-transferase theta-1 (Homo sapiens, UniProt P30711); experiment: Substrates for human cytosolic glutathione transferase GSTT1; format: ADME
# T4 sequence (P30711 whole entry): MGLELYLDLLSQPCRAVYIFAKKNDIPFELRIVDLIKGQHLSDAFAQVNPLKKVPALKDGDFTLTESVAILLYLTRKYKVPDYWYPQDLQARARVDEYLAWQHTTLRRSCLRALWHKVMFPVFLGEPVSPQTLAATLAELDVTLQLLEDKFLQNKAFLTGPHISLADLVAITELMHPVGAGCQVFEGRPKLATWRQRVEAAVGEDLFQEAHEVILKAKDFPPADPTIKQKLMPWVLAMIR
# [11] = target: T5, Nuclear receptor subfamily 1 group I member 3 (Homo sapiens, UniProt Q14994); experiment: Constitutive androstane receptor inverse agonist
# T5 sequence (Q14994 whole entry): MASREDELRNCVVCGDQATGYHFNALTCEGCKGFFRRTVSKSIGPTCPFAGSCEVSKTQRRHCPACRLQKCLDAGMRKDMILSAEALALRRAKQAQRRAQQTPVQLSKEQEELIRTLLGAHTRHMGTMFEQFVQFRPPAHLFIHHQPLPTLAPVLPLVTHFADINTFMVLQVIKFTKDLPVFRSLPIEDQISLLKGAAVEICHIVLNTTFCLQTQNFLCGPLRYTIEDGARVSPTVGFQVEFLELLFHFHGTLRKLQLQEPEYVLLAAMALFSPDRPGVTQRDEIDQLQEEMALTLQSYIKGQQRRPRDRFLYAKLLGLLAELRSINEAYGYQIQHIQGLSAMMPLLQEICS
# [12] = target: T6, Nuclear receptor subfamily 1 group I member 3 (Mus musculus, UniProt O35627); experiment: Constitutive androstane receptor agonist
# T6 sequence (O35627 whole entry): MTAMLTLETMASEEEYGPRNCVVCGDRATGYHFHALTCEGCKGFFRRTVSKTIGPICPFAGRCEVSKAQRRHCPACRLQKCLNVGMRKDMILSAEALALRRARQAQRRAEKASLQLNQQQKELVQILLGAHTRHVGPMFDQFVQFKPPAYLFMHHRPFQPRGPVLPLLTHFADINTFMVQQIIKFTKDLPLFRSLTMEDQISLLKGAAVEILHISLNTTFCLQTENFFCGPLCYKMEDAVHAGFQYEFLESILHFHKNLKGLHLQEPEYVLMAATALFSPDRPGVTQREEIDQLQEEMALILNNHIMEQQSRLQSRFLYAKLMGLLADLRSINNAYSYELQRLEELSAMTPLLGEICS
# [13] = target: T7, Glutathione S-transferase kappa 1 (Homo sapiens, UniProt Q9Y2Q3); experiment: Substrates for human mitochondrial glutathione transferase GSTK1; format: ADME
# T7 sequence (Q9Y2Q3 whole entry): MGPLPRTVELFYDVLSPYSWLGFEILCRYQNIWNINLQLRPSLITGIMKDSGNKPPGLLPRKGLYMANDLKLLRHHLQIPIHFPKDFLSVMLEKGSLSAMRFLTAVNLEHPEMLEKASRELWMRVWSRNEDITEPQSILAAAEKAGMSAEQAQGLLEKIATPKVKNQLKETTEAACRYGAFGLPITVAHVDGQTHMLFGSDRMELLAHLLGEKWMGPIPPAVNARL
# [14] = target: Glutathione S-transferase theta-2 (Homo sapiens, UniProt P0CG29); experiment: Substrates for human cytosolic glutathione transferase GSTT2; format: ADME
# Glutathione S-transferase theta-2, sequence (P0CG29 whole entry): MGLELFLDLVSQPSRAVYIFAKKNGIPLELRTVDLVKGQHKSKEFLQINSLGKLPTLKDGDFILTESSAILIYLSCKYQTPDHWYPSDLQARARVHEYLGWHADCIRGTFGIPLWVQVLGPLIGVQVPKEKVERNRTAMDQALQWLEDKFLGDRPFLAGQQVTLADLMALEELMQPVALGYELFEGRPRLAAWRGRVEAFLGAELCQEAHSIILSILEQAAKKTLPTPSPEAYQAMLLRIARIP
# [15] = target: T8, Microsomal glutathione S-transferase 1 (Homo sapiens, UniProt P10620); experiment: Substrates for human microsomal glutathione transferase MGST1; format: ADME
# T8 sequence (P10620 whole entry): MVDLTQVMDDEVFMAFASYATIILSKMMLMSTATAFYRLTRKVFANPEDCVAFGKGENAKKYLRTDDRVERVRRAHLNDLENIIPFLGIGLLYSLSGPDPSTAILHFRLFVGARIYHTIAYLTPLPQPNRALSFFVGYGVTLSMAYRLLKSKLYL
# [16] = target: T5, Nuclear receptor subfamily 1 group I member 3; experiment: (§1) Constitutive androstane receptor indirect activator; format: ADME
# [17] = target: T6, Nuclear receptor subfamily 1 group I member 3; experiment: as §1; format: ADME
# [18] = target: Cytochrome P450 2C9 (Homo sapiens, UniProt P11712); experiment: Clinically relevant substrates of human liver microsomal P450 enzymes, isoform CYP2C9; format: ADME; conditions: microsomes
# Cytochrome P450 2C9, sequence (P11712 whole entry, canonical isoform): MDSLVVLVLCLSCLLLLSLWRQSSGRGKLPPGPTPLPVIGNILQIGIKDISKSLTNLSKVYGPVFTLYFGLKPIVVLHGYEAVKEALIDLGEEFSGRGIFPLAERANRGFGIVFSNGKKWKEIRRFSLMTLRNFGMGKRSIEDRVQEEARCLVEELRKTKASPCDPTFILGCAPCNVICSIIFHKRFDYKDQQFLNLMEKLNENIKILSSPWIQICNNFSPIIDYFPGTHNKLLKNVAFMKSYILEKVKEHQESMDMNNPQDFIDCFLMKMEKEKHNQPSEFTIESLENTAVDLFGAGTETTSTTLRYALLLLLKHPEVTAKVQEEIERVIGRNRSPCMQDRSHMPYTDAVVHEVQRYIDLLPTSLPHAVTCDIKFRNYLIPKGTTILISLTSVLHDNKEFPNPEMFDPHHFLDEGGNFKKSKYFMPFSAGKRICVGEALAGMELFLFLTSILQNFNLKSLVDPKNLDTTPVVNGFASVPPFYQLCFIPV
# [19] = target: T9, Cytochrome P450 2B6 (Homo sapiens, UniProt P20813); experiment: Clinically relevant inducers of human liver microsomal P450 enzymes, isoform CYP2B6; format: ADME; conditions: microsomes
# T9 sequence (P20813 whole entry): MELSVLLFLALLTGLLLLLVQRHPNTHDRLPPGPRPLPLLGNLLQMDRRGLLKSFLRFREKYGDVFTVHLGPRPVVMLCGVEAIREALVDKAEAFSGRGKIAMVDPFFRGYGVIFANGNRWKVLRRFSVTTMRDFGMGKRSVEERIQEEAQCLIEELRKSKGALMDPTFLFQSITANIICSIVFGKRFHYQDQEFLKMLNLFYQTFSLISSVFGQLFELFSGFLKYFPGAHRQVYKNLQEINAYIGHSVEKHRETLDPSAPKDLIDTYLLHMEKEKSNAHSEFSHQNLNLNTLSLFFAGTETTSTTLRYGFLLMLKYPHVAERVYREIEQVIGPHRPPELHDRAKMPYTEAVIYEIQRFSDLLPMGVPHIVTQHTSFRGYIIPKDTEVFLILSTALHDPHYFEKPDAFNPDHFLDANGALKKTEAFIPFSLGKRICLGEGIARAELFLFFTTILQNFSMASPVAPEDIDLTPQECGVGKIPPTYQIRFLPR
# [20] = target: T10, Cytochrome P450 2A6 (Homo sapiens, UniProt P11509); experiment: Clinically relevant inhibitors of human liver microsomal P450 enzymes, isoform CYP2A6; format: ADME; conditions: microsomes
# T10 sequence (P11509 whole entry): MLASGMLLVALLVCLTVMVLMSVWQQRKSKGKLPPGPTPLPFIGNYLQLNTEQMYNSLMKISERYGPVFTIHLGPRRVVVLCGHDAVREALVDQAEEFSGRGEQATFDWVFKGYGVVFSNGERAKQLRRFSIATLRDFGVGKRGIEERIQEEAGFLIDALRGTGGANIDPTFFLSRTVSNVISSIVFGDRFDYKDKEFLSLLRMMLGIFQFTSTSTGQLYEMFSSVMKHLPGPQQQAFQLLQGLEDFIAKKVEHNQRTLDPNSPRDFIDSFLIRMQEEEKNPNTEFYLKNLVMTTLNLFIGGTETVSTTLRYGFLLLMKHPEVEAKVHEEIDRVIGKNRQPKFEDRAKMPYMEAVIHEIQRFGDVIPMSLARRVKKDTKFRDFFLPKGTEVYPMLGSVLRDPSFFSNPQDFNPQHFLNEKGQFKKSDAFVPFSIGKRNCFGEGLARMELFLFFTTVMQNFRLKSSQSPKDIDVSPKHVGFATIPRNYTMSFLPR
compound,measurement,setting,value
C[C@]12CCC(=O)CC1=CC[C@@H]1[C@@H]2CC[C@]2(C)C(=O)CC[C@@H]12,Activity,[1],Substrate
same,Activity,[2],Substrate
CCCCC/C=C\C/C=C\C/C=C\C=C\[C@H](CCCC(=O)O)OO,Activity,[3],Substrate
O=[N+]([O-])c1ccc(Cl)c2nonc12,Activity,[4],Substrate
Nc1ccccc1 [ANILINE],Activity,[5],Substrate
Oc1ccc2ccccc2c1 [BETANAPHTHOL],Activity,[6],Substrate
same,Activity,[7],Substrate
same,Activity,[8],Substrate
O=NN(CCCl)C(=O)NCCCl [CARMUSTINE],Activity,[9],Substrate
same,Activity,[10],Substrate
CN(C)CCCN1c2ccccc2Sc2ccc(Cl)cc21 [CHLORPROMAZINE],Activity,[11],inverse agonist
same,Activity,[12],agonist
Clc1ccccc1C(c1ccccc1)(c1ccccc1)n1ccnc1 [CLOTRIMAZOLE],Activity,[12],agonist
CC(C)(OO)c1ccccc1 [CUMENE HYDROPEROXIDE],Activity,[4],Substrate
same,Activity,[13],Substrate
same,Activity,[14],Substrate
same,Activity,[15],Substrate
"OC1c2c(cc3ccc4cccc5c6ccccc6c2c3c45)C2OC2C1O (configuration not stated) [DIBENZO[A,L]PYRENE DIOL EPOXIDE]",Activity,[1],Substrate
same,Activity,[4],Substrate
same,Activity,[2],Substrate
CCCCCCCCCCCC(=O)O [DODECANOATE],Activity,[5],Substrate
ClC(Cl)=C(Cl)C(Cl)=C(Cl)Cl [HEXACHLOROBUTADIENE],Activity,[15],Substrate
Cc1cccc(CN2CCN(C(c3ccccc3)c3ccc(Cl)cc3)CC2)c1 (configuration not stated) [MECLIZINE],Activity,[11],inverse agonist
same,Activity,[12],agonist
O=S(=O)(O)Cc1ccc2ccccc2c1 [MENAPHTHYL SULFONATE],Activity,[14],Substrate
O=C1NC(=O)C(c2ccccc2)(c2ccccc2)N1 [PHENYTOIN],Activity,[16],indirect activator
same,Activity,[17],indirect activator
same,Activity,[18],Substrate
same,Activity,[19],Inducer
CC[C@@H]1C(=O)OC[C@@H]1Cc1cncn1C [PILOCARPINE],Activity,[20],Inhibitor
N[C@@H]1C[C@H]1c1ccccc1.N[C@H]1C[C@@H]1c1ccccc1 [TRANYLCYPROMINE],Activity,[20],Inhibitor
NCCc1c[nH]c2ccccc12 [TRYPTAMINE],Activity,[20],Inhibitor
